Test results: PMC5522084, “Eg5 inhibitor YL001 induces mitotic arrest and inhibits tumor proliferation” (Oncotarget, 2017)

Tests used:
Eg5 motor domain = biological target: T1, Eg5 motor domain (Homo sapiens, UniProt P52732); experiment: SPR assay (Biacore T200); type: binding; details: for Binding Level (RU): SPR screening
T1 sequence (P52732 18-359 limits assumed): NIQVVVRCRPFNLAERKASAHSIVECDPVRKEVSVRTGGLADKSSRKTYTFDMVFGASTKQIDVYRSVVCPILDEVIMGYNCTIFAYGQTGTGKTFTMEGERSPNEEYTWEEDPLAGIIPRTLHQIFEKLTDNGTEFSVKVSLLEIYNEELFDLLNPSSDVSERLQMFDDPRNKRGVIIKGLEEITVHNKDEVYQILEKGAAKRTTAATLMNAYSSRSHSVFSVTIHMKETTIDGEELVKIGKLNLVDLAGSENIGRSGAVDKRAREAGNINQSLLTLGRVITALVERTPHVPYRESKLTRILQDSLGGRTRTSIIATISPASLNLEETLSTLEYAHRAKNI
Method: Interactions of the Eg5 motor domain and compounds of interest were analyzed using the Biacore T200 system (GE Healthcare, Uppsala, Sweden) at 25°C. Eg5 motor protein obtained as previously described (51) was immobilized on a sensor chip (CM5) using an amine coupling kit (GE Healthcare, Buckinghamshire, UK). […] For binding studies, analytes were applied at corresponding concentrations in running buffer at a flow rate of 30 μL/minute with a contact time of 60 seconds and a dissociation time of 60 seconds. Chip platforms were washed with running buffer and 50% DMSO. Data were analyzed with Biacore evaluation software (T200 Version 1.0) by curve fitting using a steady state 1:1 binding model and a kinetic model.

human cancer cell lines = experiment: Antiproliferation screening of 23 selected compounds (Alamar Blue); type: cell-based; details: proliferation inhibition
Method: (§1) Cytotoxic activities of the compounds of interest were investigated with human cancer cell lines using the Alamar Blue assay. Cells (5 × 10^3 cells/well) were seeded into 96-well plates (Corning, 3603). Various sample concentrations (compounds of interest) were added to each well in duplicate, and incubated at 37°C with 5% CO2 for two days such that cells were in the exponential growth phase at the time of drug addition. Ten microliters of the Alamar Blue Solution (Invitrogen, Alamar Blue) were added to each well and incubated at 37°C for up to 2 hours in a humidified, 5% CO2 atmosphere. After incubation, florescence was measured using a microplate reader (Tecan) at an excitation wavelength of 540 nm and emission of 590 nm. Each inhibitory concentration was measured in triplicate, and averaged data points ± SD are shown. Statistical analysis was carried out with GraphPad Prism 5 and the fifty-percent effective concentration is expressed as EC50.

HeLa cells = experiment: Colony formation; type: cell-based; details: Homo sapiens, exposed 24 hours, cultured 10 days
Method: HeLa cells (5 × 10^2 cells/well) were seeded into 6-well plates and were treated with a series of gradient concentrations of YL001 for 24 hours, followed by washing and continual culture for 10 days. DMSO was used as a negative control, and STLC was used as a positive control. Cells were fixed with ethanol for more than 30 minutes and dyed with crystal violet for more than 30 minutes. Clones were counted with OpenCFU [54].

HeLa = experiment: Antiproliferation assay (Alamar Blue), HeLa; type: cell-based; details: Homo sapiens, 48 h, HeLa cell line, two days
Method: as §1

Eg5 = Eg5 (Homo sapiens, UniProt P52732); experiment: Inhibition of Eg5 ATPase activity; type: biochemical; details: read-out: Enzyme EC50
Sequence of Eg5 (P52732 whole entry): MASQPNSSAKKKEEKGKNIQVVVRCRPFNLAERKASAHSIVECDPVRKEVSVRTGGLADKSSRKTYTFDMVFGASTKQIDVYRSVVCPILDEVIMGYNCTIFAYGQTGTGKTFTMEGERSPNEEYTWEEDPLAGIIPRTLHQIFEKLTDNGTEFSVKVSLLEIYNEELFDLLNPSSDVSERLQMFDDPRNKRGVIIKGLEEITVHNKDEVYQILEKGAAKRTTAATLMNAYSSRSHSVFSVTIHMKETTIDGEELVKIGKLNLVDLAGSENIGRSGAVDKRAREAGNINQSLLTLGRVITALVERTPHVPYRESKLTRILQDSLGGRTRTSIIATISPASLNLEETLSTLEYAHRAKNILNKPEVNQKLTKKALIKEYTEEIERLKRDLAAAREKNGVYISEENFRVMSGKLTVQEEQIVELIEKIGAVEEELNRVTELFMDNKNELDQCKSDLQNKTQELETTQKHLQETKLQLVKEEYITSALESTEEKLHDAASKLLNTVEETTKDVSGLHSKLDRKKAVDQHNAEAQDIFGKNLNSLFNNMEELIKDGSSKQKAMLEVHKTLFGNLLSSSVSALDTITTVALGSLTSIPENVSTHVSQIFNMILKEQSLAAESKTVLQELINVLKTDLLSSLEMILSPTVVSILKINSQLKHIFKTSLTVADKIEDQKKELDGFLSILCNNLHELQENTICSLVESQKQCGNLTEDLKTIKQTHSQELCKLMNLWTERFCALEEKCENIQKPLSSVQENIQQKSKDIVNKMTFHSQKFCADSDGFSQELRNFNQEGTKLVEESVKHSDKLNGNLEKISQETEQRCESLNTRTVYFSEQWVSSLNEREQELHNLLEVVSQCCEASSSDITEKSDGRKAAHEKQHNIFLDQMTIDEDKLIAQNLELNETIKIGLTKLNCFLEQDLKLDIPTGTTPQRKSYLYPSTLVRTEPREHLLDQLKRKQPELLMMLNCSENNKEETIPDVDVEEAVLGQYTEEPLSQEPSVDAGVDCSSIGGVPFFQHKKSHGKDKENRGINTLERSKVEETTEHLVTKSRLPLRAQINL
Method: All experiments were performed as previously described. Data were analyzed using GraphPad Prism 5 and Microsoft Excel to obtain EC50 values. […] Each inhibitory concentration was measured in triplicate, and averaged data points ± SD are shown.

Binding Level (RU) (Eg5 motor domain)	SMILES	Inhibition (50 μM) (human cancer cell lines)	other results
44.5	Cc1ccc(N2C(=O)CSC23C(=O)N(CN2CCN(c4ccccc4)CC2)c2ccccc23)cc1C (stereo not drawn) [AG-205/13460017]	30.78%	–
59.8	CC(=O)C1=NN(c2ccc(Cl)cc2)C(c2ccc3c(c2)OCO3)N1c1ccccc1 (stereo not drawn) [AK-778/11811129]	9.38%	–
7.4	CC(=O)C1=NN(c2ccc(C)cc2)C(c2c[nH]c3ccccc23)N1c1ccc(C)cc1 (stereo not drawn) [AN-465/13570058]	98.24%	–
36.9	OC(COCc1ccc2c(c1)OCO2)CN1CCN(C(c2ccccc2)c2ccccc2)CC1 (stereo not drawn) [AF-399/14739190]	22.02%	–
56.6	Cc1ccc(/C(O)=C2\C(=N)N(c3ccccc3)C3=C(C(=O)CCC3)C2c2ccccc2)cc1 (stereo not drawn) [AN-919/14547078]	30.07%	–
60.7	CCc1cc(C(c2ccccc2F)N2CCOCC2)c(NC(=O)c2ccccc2)s1 (stereo not drawn) [AP-906/42853823]	19.16%	–
69.6	N=C1/C(=C(/O)c2ccccc2)C(c2ccccc2)C2=C(CCCC2=O)N1c1ccc(Br)cc1 (stereo not drawn) [AN-919/14547075]	27.56%	–
1.9	Cc1ccc(C2C3=C(CCCC3=O)N(c3ccc(Br)cc3)C(=N)/C2=C(/O)c2ccccc2)cc1 (stereo not drawn) [AN-919/14547113]	21.56%	–
8.7	Cn1cc(C2C(=O)NC(c3ccccc3)=NN2C(=O)c2ccccc2)c2ccccc21 (stereo not drawn) [AG-227/37394007]	97.78%	–
56.4	Cc1ccc(N=C2S/C(=C/c3ccccc3OCC(=O)N3CCOCC3)C(=O)N2Cc2ccccc2)cc1 [AO-081/41364431]	29.79%	–
27.7	O=[N+]([O-])c1ccc(COc2ccccc2C2N(Cc3ccccc3)CCN2Cc2ccccc2)cc1 [AG-205/14740101]	0.87%	–

Further lines, the molecule ahead of its results:

SMILES	Binding Level (RU) (Eg5 motor domain)	Inhibition (50 μM) (human cancer cell lines)	other results
CCOC(=O)C1=CN2C(C=C1)C(C(=C(C#N)C#N)C1CC1)C(c1ccccc1)C2C(=O)c1ccccc1 (stereo not drawn) [AG-205/33162003]	32.8	60.89%	–
COC(=O)C1NC(c2ccc(F)cc2)(c2ccc(F)cc2)C2C(=O)N(c3ccc(Cl)cc3)C(=O)C12 (stereo not drawn) [AH-487/42271989]	31.9	41.63%	–
Cc1ccc(SC(c2ccccc2)C(Cn2cncn2)C(=O)c2ccc(Br)cc2)cc1 (stereo not drawn) [AQ-714/41675002]	2.3	32.65%	–
COC(=O)CN1C(c2ccccc2)=Nc2ccc(Br)cc2C1c1ccccc1 (stereo not drawn) [AG-690/36921098]	61.1	21.81%	–
CCOC(=O)C1C2c3ccccc3C(c3ccccc32)C1C(=O)OCC (stereo not drawn) [AE-842/33003047]	14.6	–30.66%	–
Cc1ccc(N2C(=N)/C(=C(/O)c3ccccc3)C(c3ccc([N+](=O)[O-])cc3)C3=C2CCCC3=O)cc1Cl (stereo not drawn) [AN-919/14545008]	57.7	26.79%	–
Cc1ccc(-n2nnnc2/C(=C/N(C)C)C(=O)c2cccc(C(F)(F)F)c2)cc1 [AG-401/37257005]	18.8	95.06%	–
N#CC1=C(N)Oc2n[nH]c(-c3cccc4ccccc34)c2C1c1cccc(O)c1 (stereo not drawn) [AJ-292/15089069]	100.1	58.97%	–
N[C@@H](CSC(c1ccccc1)(c1ccccc1)c1ccccc1)C(=O)O [STLC, S-Trityl-L-cysteine, reference compound]	–	–	IC50 (HeLa cells): 1250 nM; EC50 (HeLa): 1460 ± 60 nM
CC1(C)CC(=O)C2=C(C1)OC(N)=C(C#N)C21C(=O)N(Cc2ccccc2Cl)c2ccccc21 (stereo not drawn) [AM-807/14957480]	16.3	30.76%	–
CC(=O)Nc1sc2c(c1C(c1ccc(OC(F)F)cc1)N1CCOCC1)CCCC2 (stereo not drawn) [AF-399/41981012]	3.8	14.85%	–
CN(C)CCN1C(=O)C(=O)/C(=C(/O)c2ccccc2)C1c1ccc2c(c1)OCO2 (stereo not drawn) [AG-205/13765047]	3.4	–18.48%	–
NC1=C(C(=O)OCc2ccccc2)C2(C(=O)Nc3ccc(Br)cc32)C2=C(CCCC2=O)O1 (stereo not drawn) [AK-777/10805059]	20.7	31.51%	–
COc1ccc(C(OCC2OC(n3cnc4c(N)ncnc43)C(O)C2O)(c2ccccc2)c2ccccc2)cc1 (stereo not drawn) [Compound 7170]	–	–	Kd (Eg5 motor domain; SPR Biacore T200, 25°C): 1130 nM; EC50 (Eg5): 18000 nM; EC50 (HeLa): 13300 ± 1320 nM
